Test results reported in the supplement of paper PMC13380429.

Experiments:
[1] = tested on: A549-ACE2 infected with SARS-CoV-2; assay: cell count relative to DMSO; higher = less toxic; conditions: 24 h
[2] = tested on: Caco-2; assay: cell viability relative to DMSO; higher = less toxic; conditions: 72 h
[3] = tested on: Calu-3; assay: as above; conditions: 72 h
[4] = tested on: HepG2; assay: as above; conditions: 72 h
[5] = tested on: U2OS; assay: as above; conditions: 72 h
[6] = tested on: Vero E6; assay: as above; conditions: 72 h
[7] = tested on: A549-ACE2 infected with SARS-CoV-2; assay: SARS-CoV-2 infection rate relative to DMSO; higher = more infection; conditions: 24 h
[8] = tested on: A549-ACE2; assay: drug-induced phospholipidosis relative to tamoxifen; higher = more phospholipidosis
[9] = tested on: A549-ACE2 infected with SARS-CoV-2; assay: morphology score (similarity to uninfected cells); higher = more like uninfected cells; conditions: 24 h
[10] = tested on: Caco-2; assay: relative viability EC50 (midpoint between 100% and the lowest measured viability); higher = less toxic; conditions: 72 h
[11] = tested on: Calu-3; assay: as above; conditions: 72 h
[12] = tested on: HepG2; assay: as above; conditions: 72 h
[13] = tested on: U2OS; assay: as above; conditions: 72 h
[14] = tested on: Vero E6; assay: as above; conditions: 72 h
[15] = tested on: Caco-2; assay: drug sensitivity score (DSS) for viability; higher = more toxic; extreme values may be limits of the assay; conditions: 72 h
[16] = tested on: Calu-3; assay: as above; conditions: 72 h
[17] = tested on: HepG2; assay: as above; conditions: 72 h
[18] = tested on: U2OS; assay: as above; conditions: 72 h
[19] = tested on: Vero E6; assay: as above; conditions: 72 h
[20] = tested on: A549-ACE2; assay: phospholipidosis EC50; higher = less potent phospholipidosis inducer

CCN(CC)CCOc1ccc2c(c1)C(=O)c1cc(OCCN(CC)CC)ccc1-2 [tilorone]
Conditions | SARS-CoV-2 infection rate, [7] [%] | cell count, [1] [%] | cell viability, [2] [%] | cell viability, [3] [%] | cell viability, [4] [%] | cell viability, [5] [%] | cell viability, [6] [%] | morphology score, [9]
1 nM | – | – | 102 | 103 | 98.4 | 103 | 106 | –
10 nM | – | – | 102 | 101 | 93.2 | 104 | 104 | –
0.1 µM | 88 | 102 | – | – | – | – | – | 0.26
100 nM | – | – | 97.1 | 95.7 | 91.3 | 100 | 97.5 | –
0.3 µM | 84 | 106 | – | – | – | – | – | 0.37
1 µM | 77 | 102 | – | – | – | – | – | 0.45
1000 nM | – | – | 95 | 96.6 | 96.8 | 95.9 | 100 | –
3 µM | 46 | 108 | – | – | – | – | – | 0.5
10000 nM | – | – | 78.4 | 78.8 | 15.8 | 98.9 | 35.2 | –

drug-induced phospholipidosis [%], [8]
Conditions | 0.3 µM | 0.833333 µM | 3.33333 µM | 6.66667 µM | 10 µM | 30 µM
24 h | -3.79 | -6.82 | -21.7 | -22.6 | -23.9 | -27.5
48 h | 2.58 | -4.68 | -11.7 | -11.1 | -10 | -8.85
72 h | 3.61 | -1.19 | -2.58 | 0.944 | -0.898 | –

Conditions | drug sensitivity score | relative viability EC50 [µM]
[10] | – | > 10
[11] | – | > 10
[12] | – | 2.87
[13] | – | > 10
[14] | – | 3.19
[15] | 1.3 | –
[16] | 1.2 | –
[17] | 5.1 | –
[18] | 0 | –
[19] | 3.5 | –

COc1ccc2cc1Oc1ccc(cc1)C[C@H]1c3c(cc4c(c3Oc3cc5c(cc3OC)CCN(C)[C@@H]5C2)OCO4)CCN1C [cepharanthine]
Conditions | SARS-CoV-2 infection rate, [7] [%] | cell count, [1] [%] | cell viability, [2] [%] | cell viability, [3] [%] | cell viability, [4] [%] | cell viability, [5] [%] | cell viability, [6] [%] | morphology score, [9]
1 nM | – | – | 93.5 | 105 | 99.5 | 95.7 | 95.7 | –
10 nM | – | – | 102 | 107 | 87.8 | 104 | 98.8 | –
100 nM | – | – | 105 | 99.3 | 95.9 | 97 | 96 | –
0.3 µM | 98 | 104 | – | – | – | – | – | 0.04
1000 nM | – | – | 108 | 96.5 | 87.7 | 97.7 | 88.9 | –
3 µM | 75 | 111 | – | – | – | – | – | 0.53
10 µM | 69 | 122 | – | – | – | – | – | 0.79
10000 nM | – | – | 93.1 | 78.7 | 93.7 | 86.5 | 92.9 | –
30 µM | 27 | 104 | – | – | – | – | – | 0.49

drug-induced phospholipidosis [%], [8]
Conditions | 0.3 µM | 0.833333 µM | 3.33333 µM | 6.66667 µM | 10 µM | 30 µM
24 h | 9.38 | 2.99 | 21.4 | 34.2 | 49.7 | 34.6
48 h | 6.7 | 5.05 | 19.4 | 29.3 | 35.4 | –
72 h | 6.61 | 3.04 | 15.2 | 24.3 | 32.4 | –

Conditions | drug sensitivity score | relative viability EC50 [µM]
[10] | – | > 10
[11] | – | > 10
[12] | – | > 10
[13] | – | > 10
[14] | – | > 10
[15] | 0 | –
[16] | 1.2 | –
[17] | 0 | –
[18] | 0.3 | –
[19] | 0 | –

CCN(CC)Cc1cc(Nc2ccnc3cc(Cl)ccc23)ccc1O [amodiaquine]
Conditions | SARS-CoV-2 infection rate, [7] [%] | cell count, [1] [%] | cell viability, [2] [%] | cell viability, [3] [%] | cell viability, [4] [%] | cell viability, [5] [%] | cell viability, [6] [%] | morphology score, [9]
1 nM | – | – | 99.3 | 114 | 103 | 98.5 | 101 | –
10 nM | – | – | 92.1 | 110 | 79 | 101 | 99.3 | –
100 nM | – | – | 90.2 | 106 | 85.7 | 103 | 101 | –
0.3 µM | 87 | 109 | – | – | – | – | – | 0.38
1000 nM | – | – | 96.7 | 91.5 | 85.7 | 98.1 | 95.3 | –
3 µM | 24 | 121 | – | – | – | – | – | 0.87
10 µM | 12 | 133 | – | – | – | – | – | 0.76
10000 nM | – | – | 58.5 | 81.8 | 57.7 | 93.9 | 84.9 | –
30 µM | 14 | 121 | – | – | – | – | – | 0.1

Conditions | drug sensitivity score | relative viability EC50 [µM]
[11] | – | > 10
[13] | – | > 10
[14] | – | > 10
[15] | 2.6 | –
[16] | 1.3 | –
[17] | 5.5 | –
[18] | 0 | –
[19] | 0.6 | –

CSc1ccc2c(c1)N(CCC1CCCCN1C)c1ccccc1S2 (stereo not given) [thioridazine]
Conditions | SARS-CoV-2 infection rate [%] | cell count [%] | cell viability [%] | morphology score | phospholipidosis EC50 [µM]
[1], 0.1 µM | – | 106 | – | – | –
[1], 0.3 µM | – | 104 | – | – | –
[1], 1 µM | – | 110 | – | – | –
[1], 3 µM | – | 121 | – | – | –
[2], 1 nM | – | – | 110 | – | –
[2], 10 nM | – | – | 100 | – | –
[2], 100 nM | – | – | 105 | – | –
[2], 1000 nM | – | – | 105 | – | –
[2], 10000 nM | – | – | 69.5 | – | –
[3], 1 nM | – | – | 104 | – | –
[3], 10 nM | – | – | 110 | – | –
[3], 100 nM | – | – | 96.8 | – | –
[3], 1000 nM | – | – | 96.2 | – | –
[3], 10000 nM | – | – | 31.4 | – | –
[4], 1 nM | – | – | 105 | – | –
[4], 10 nM | – | – | 110 | – | –
[4], 100 nM | – | – | 104 | – | –
[4], 1000 nM | – | – | 102 | – | –
[4], 10000 nM | – | – | 44.5 | – | –
[5], 1 nM | – | – | 105 | – | –
[5], 10 nM | – | – | 103 | – | –
[5], 100 nM | – | – | 102 | – | –
[5], 1000 nM | – | – | 103 | – | –
[5], 10000 nM | – | – | 74.7 | – | –
[6], 1 nM | – | – | 106 | – | –
[6], 10 nM | – | – | 103 | – | –
[6], 100 nM | – | – | 104 | – | –
[6], 1000 nM | – | – | 102 | – | –
[6], 10000 nM | – | – | 69.7 | – | –
[7], 0.1 µM | 94 | – | – | – | –
[7], 0.3 µM | 101 | – | – | – | –
[7], 1 µM | 82 | – | – | – | –
[7], 3 µM | 21 | – | – | – | –
[9], 0.1 µM | – | – | – | 0.31 | –
[9], 0.3 µM | – | – | – | 0.1 | –
[9], 1 µM | – | – | – | 0.34 | –
[9], 3 µM | – | – | – | 0.84 | –
[20], 24 h | – | – | – | – | 3.21
[20], 48 h | – | – | – | – | 4.53
[20], 72 h | – | – | – | – | 5.9

drug-induced phospholipidosis [%], [8]
Conditions | 0.3 µM | 0.833333 µM | 3.33333 µM | 6.66667 µM | 10 µM | 30 µM
24 h | 14.9 | 4.83 | 47.8 | 79.3 | 86 | 44.9
48 h | 9.22 | 4.87 | 28.5 | 86.4 | 99.3 | –
72 h | 7.14 | 2.71 | 20 | 83.7 | 117 | –

Conditions | drug sensitivity score | relative viability EC50 [µM]
[11] | – | 2.72
[12] | – | 3.36
[15] | 1.1 | –
[16] | 4.3 | –
[17] | 2.8 | –
[18] | 0.8 | –
[19] | 1.2 | –
